Test results as given in patent US20180304019A1, “ADMINISTRATION APPARATUS” (DAICEL CORPORATION, priority 2015, published 2018).
Read-outs that look alike come from different tables or passages of the source.

Tested on: intradermal layer, skin tissue of the rabbit in vivo
Settings: dose 100 μl
Method: Moreover, an object of the following experimental conditions is to confirm, when an inflammatory substance is administered to the intradermal layer which is skin tissue of the rabbit in vivo, a presence or absence of an inflammatory response (formation of erythema and eschar, and formation of edema) for each elapsed time (after 24 hours, 48 hours, and 72 hours). In addition, the injection of an injection solution with the needled injector was performed at a constant pressurization rate.
16-week-old male Std: JW/CSK rabbit, already shaved and smooth skin-verified, was used.
An aqueous solution of the following inflammatory substance was used as the dosing liquid and the injection solution.
Inflammatory substance: acetic acid, diluted to a predetermined concentration with distilled water, dose 100 μl
Definitions of numerical values representing the experimental results in the tables with respect to each of erythema and eschar formation and edema formation are as follows.
(Erythema and Eschar Formation)
1 Very slight erythema (barely perceptible erythema)
2 Slight erythema (clearly perceptible erythema)
3 Moderate to severe erythema
4 Severe erythema to eschar formations
1 Very slight edema (barely perceptible edema)
2 Slight edema (edema with edges perceptible due to definite raising)
3 Moderate edema (raised approximately 1 mm)
4 Severe edema (raised 1 mm or more and extending beyond the area of exposure)

[1] = acetic acid 0.25%, Comparative example (needled injector), 24 h
[2] = acetic acid 0.25%, Comparative example (needled injector), 48 h
[3] = acetic acid 0.25%, Comparative example (needled injector), 72 h
[4] = acetic acid 0.25%, Injector 1, 24 h
[5] = acetic acid 0.25%, Injector 1, 48 h
[6] = acetic acid 0.25%, Injector 1, 72 h
[7] = acetic acid 0.5%, Comparative example (needled injector), 24 h
[8] = acetic acid 0.5%, Comparative example (needled injector), 48 h
[9] = acetic acid 0.5%, Comparative example (needled injector), 72 h
[10] = acetic acid 0.5%, Injector 1, 24 h
[11] = acetic acid 0.5%, Injector 1, 48 h
[12] = acetic acid 0.5%, Injector 1, 72 h
[13] = acetic acid 1.0%, Comparative example (needled injector), 24 h
[14] = acetic acid 1.0%, Comparative example (needled injector), 48 h
[15] = acetic acid 1.0%, Comparative example (needled injector), 72 h
[16] = acetic acid 1.0%, Injector 1, 24 h
[17] = acetic acid 1.0%, Injector 1, 48 h
[18] = acetic acid 1.0%, Injector 1, 72 h
[19] = acetic acid 1.5%, Comparative example (needled injector), 24 h
[20] = acetic acid 1.5%, Comparative example (needled injector), 48 h
[21] = acetic acid 1.5%, Comparative example (needled injector), 72 h
[22] = acetic acid 1.5%, Injector 1, 24 h
[23] = acetic acid 1.5%, Injector 1, 48 h
[24] = acetic acid 1.5%, Injector 1, 72 h
[25] = acetic acid 2.0%, Comparative example (needled injector), 24 h
[26] = acetic acid 2.0%, Comparative example (needled injector), 48 h
[27] = acetic acid 2.0%, Comparative example (needled injector), 72 h
[28] = acetic acid 2.0%, Injector 1, 24 h
[29] = acetic acid 2.0%, Injector 1, 48 h
[30] = acetic acid 2.0%, Injector 1, 72 h

Edema 24 h [1]: 0
Erythema etc. 24 h [1]: 1
Edema 48 h [2]: 0
Erythema etc. 48 h [2]: 1
Edema 72 h [3]: 0
Erythema etc. 72 h [3]: 1
Edema 24 h [4]: 0
Erythema etc. 24 h [4]: 1
Edema 48 h [5]: 0
Erythema etc. 48 h [5]: 1
Edema 72 h [6]: 0
Erythema etc. 72 h [6]: 1
Edema 24 h [7]: 0
Erythema etc. 24 h [7]: 1
Edema 48 h [8]: 0
Erythema etc. 48 h [8]: 1
Edema 72 h [9]: 0
Erythema etc. 72 h [9]: 1
Edema 24 h [10]: 0
Erythema etc. 24 h [10]: 1
Edema 48 h [11]: 0
Erythema etc. 48 h [11]: 1
Edema 72 h [12]: 0
Erythema etc. 72 h [12]: 1
Edema 24 h [13]: 1
Erythema etc. 24 h [13]: 1
Edema 48 h [14]: 1
Erythema etc. 48 h [14]: 1
Edema 72 h [15]: 1
Erythema etc. 72 h [15]: 1
Edema 24 h [16]: 0
Erythema etc. 24 h [16]: 1
Edema 48 h [17]: 0
Erythema etc. 48 h [17]: 1
Edema 72 h [18]: 0
Erythema etc. 72 h [18]: 1
Edema 24 h [19]: 2
Erythema etc. 24 h [19]: 1
Edema 48 h [20]: 2
Erythema etc. 48 h [20]: 1
Edema 72 h [21]: 2
Erythema etc. 72 h [21]: 1
Edema 24 h [22]: 0
Erythema etc. 24 h [22]: 1
Edema 48 h [23]: 0
Erythema etc. 48 h [23]: 1
Edema 72 h [24]: 0
Erythema etc. 72 h [24]: 1
Edema 24 h [25]: 3
Erythema etc. 24 h [25]: 1
Edema 48 h [26]: 3
Erythema etc. 48 h [26]: 1
Edema 72 h [27]: 2
Erythema etc. 72 h [27]: 1
Edema 24 h [28]: 1
Erythema etc. 24 h [28]: 1
Edema 48 h [29]: 1
Erythema etc. 48 h [29]: 1
Edema 72 h [30]: 1
Erythema etc. 72 h [30]: 1
Compound: CC(=O)O [Acetic acid, acetic acid]
